ChEMBL document CHEMBL6083276, “Pan-Transcriptional Enhanced Associated Domain Palmitoylation Pocket Covalent Inhibitor” (J Med Chem, 2024)
Activity calls are given as the source filed them. The rule behind the calls is not given here.

How the values were obtained:
[1] = Inhibition of palmitoylation site of TEAD (unknown origin) in human Hippo Pathway/TEAD Luciferase reporter MCF7 cells assessed as reduction in transcriptional activation by measuring luciferase activity incubated for 24 hrs by Promega One-Glo luciferase reagent based assay; format: cell-based, Hippo Pathway/TEAD Luciferase reporter MCF7 cell; details: MCF7, 24 h
NCI-H226 [2] = assay: Cytotoxicity against human NCI-H226 cells assessed as reduction in cell viability incubated for 144 hrs by CellTiter-Glo luciferase assay; format: functional, cell-based; details: NCI-H226, 144 h
[3] = Metabolic stability in human liver microsomes assessed as parent compound remaining measured after 15 mins by LC-MS/MS analysis; format: ADME, Microsome; details: read-out: Stability
[4] = Metabolic stability in mouse liver microsomes assessed as parent compound remaining measured after 15 mins by LC-MS/MS analysis; format: ADME, Microsome; details: read-out: Stability
[5] = Metabolic stability in human liver microsomes assessed as parent compound remaining measured after 30 mins by LC-MS/MS analysis; format: ADME, Microsome; details: read-out: Stability
[6] = Metabolic stability in mouse liver microsomes assessed as parent compound remaining measured after 30 mins by LC-MS/MS analysis; format: ADME, Microsome; details: read-out: Stability
[7] = Selectivity index, ratio of IC50 for human NCI-H28 cells to IC50 for human NCI-H226 cells
[8] = biological target: Transcriptional enhancer factor TEF-5 (Homo sapiens) (UniProt Q99594); assay: Inhibition of Myc-tagged TEAD3 (unknown origin) palmitoylation transfected in HEK293 cells at 300 nM incubated for 24 hrs by palmitoylation assay; format: cell-based
[9] = Cmax in mouse at 10 mg/kg, po measured after 24 hrs by LC-MS/MS analysis; format: ADME, organism-based; details: in vivo
[10] = Toxicity in mouse xenografted with human NCI-H226 cells assessed as body weight loss at 10 to 30 mg/kg, po administered for 28 days; format: organism-based; details: in vivo, 672 h, dose 10-30 mg/kg, time 28 day
[11] = AUClast in mouse at 10 mg/kg, po measured after 24 hrs by LC-MS/MS analysis; format: ADME, organism-based; details: in vivo
NCI-H226 [12] = assay: Antitumor activity against human NCI-H226 cells xenografted in mouse assessed as tumor growth inhibition at 30 mg/kg, po measured after 17 days; format: functional, organism-based; details: time 17.0 day
[13] = Inhibition of CYR61 gene expression in human NCI-H226 cells at 30 nM incubated for 24 hrs by RT-qPCR analysis relative to control; format: functional
NCI-H226 [14] = assay: Cytotoxicity against human NCI-H226 cells assessed as reduction in cell viability at 0.1 to 1 uM incubated for 12 to 48 hrs; format: functional, cell-based; details: dose 0.1-1 µM, time 12-48 hrs
HEK293 = assay: Cytotoxicity against HEK293 cells assessed as reduction in cell viability at 0.1 to 1 uM incubated for 12 to 48 hrs; format: toxicity, cell-based; details: human, hek293, 1 µM; dose lower 0.1 µM, time lower 12 hrs, dose upper 1 µM, time upper 48 hrs
NCI-H226 [15] = assay: Inhibition of CYR61 gene expression in human NCI-H226 cells incubated for 24 hrs by RT-qPCR analysis; format: functional, cell-based; details: dose 30-300 nM
[16] = biological target: Transcriptional enhancer factor TEF-1 (Homo sapiens) (UniProt P28347); assay: Inhibition of Myc-tagged TEAD1 (unknown origin) palmitoylation transfected in HEK293 cells at 300 nM incubated for 24 hrs by palmitoylation assay; format: cell-based
NCI-H226 [17] = assay: Inhibition of CYR61 gene expression in human NCI-H226 cells at 300 nM incubated for 24 hrs by RT-qPCR analysis; format: functional, cell-based
[18] = Half-life in mouse at 10 mg/kg, po measured after 24 hrs by LC-MS/MS analysis; format: ADME, organism-based; details: in vivo
[19] = Tmax in mouse at 10 mg/kg, po measured after 24 hrs by LC-MS/MS analysis; format: ADME, organism-based; details: in vivo
[20] = MRT in mouse at 10 mg/kg, po measured after 24 hrs by LC-MS/MS analysis; format: ADME, organism-based; details: in vivo
NCI-H226 [21] = assay: Inhibition of CTGF gene expression in human NCI-H226 cells at 300 nM incubated for 24 hrs by RT-qPCR analysis; format: functional, cell-based
[22] = Inhibition of CTGF gene expression in human NCI-H226 cells at 30 nM incubated for 24 hrs by RT-qPCR analysis relative to control; format: functional
NCI-H226 [23] = assay: Inhibition of CTGF gene expression in human NCI-H226 cells incubated for 24 hrs by RT-qPCR analysis; format: functional, cell-based; details: dose 30-300 nM
[24] = biological target: Transcriptional enhancer factor TEF-3 (Homo sapiens) (UniProt Q15561); assay: Inhibition of Myc-tagged TEAD4 (unknown origin) palmitoylation transfected in HEK293 cells at 300 nM incubated for 24 hrs by palmitoylation assay; format: cell-based
[25] = biological target: Transcriptional enhancer factor TEF-4 (Homo sapiens) (UniProt Q15562); assay: Inhibition of Myc-tagged TEAD2 (unknown origin) palmitoylation transfected in HEK293 cells at 300 nM incubated for 24 hrs by palmitoylation assay; format: cell-based
NCI-H226 [26] = assay: Antitumor activity against human NCI-H226 cells xenografted in mouse assessed as reduction in tumor size at 10 to 30 mg/kg, po measured upto 28 days; format: functional, organism-based; details: dose 10-30 mg/kg, time <= 28.0 day

Transcriptional enhancer factor TEF-5 (Homo sapiens), sequence (Q99594 whole entry): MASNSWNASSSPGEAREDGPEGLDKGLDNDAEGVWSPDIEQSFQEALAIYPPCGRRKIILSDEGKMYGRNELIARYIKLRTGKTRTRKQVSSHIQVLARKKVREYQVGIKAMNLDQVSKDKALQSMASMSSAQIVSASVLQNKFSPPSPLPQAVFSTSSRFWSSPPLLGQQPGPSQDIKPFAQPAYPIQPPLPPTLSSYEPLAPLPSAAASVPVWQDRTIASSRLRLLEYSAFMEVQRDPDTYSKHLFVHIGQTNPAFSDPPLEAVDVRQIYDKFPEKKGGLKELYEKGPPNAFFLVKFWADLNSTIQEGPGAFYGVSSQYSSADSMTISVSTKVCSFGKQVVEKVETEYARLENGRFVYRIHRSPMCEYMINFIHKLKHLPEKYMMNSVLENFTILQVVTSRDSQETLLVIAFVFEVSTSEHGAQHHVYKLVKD
Transcriptional enhancer factor TEF-3 (Homo sapiens), sequence (Q15561 whole entry): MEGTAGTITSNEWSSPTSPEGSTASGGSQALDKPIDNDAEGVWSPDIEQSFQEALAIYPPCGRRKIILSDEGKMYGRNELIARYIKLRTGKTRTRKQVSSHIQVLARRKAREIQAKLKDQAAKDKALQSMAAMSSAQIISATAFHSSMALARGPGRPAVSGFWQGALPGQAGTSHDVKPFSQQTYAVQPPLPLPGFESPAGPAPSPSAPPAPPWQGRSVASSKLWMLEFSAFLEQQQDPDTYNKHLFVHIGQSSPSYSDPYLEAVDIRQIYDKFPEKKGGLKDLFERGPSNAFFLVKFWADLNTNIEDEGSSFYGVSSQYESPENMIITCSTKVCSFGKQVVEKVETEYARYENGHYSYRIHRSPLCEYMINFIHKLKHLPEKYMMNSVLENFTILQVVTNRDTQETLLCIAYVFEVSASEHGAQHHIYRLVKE
Transcriptional enhancer factor TEF-1 (Homo sapiens), sequence (P28347 whole entry): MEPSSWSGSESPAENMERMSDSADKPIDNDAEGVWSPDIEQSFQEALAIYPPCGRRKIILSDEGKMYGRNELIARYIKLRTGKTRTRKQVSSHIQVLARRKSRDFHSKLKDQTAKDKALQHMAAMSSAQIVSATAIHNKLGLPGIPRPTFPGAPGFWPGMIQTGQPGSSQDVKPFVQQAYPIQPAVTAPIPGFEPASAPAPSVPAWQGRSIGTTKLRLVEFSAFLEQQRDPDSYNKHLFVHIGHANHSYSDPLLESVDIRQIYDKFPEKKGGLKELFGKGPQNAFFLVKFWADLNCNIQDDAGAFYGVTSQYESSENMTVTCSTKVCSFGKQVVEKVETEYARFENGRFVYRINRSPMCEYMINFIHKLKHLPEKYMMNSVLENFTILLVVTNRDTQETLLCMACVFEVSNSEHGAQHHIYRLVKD
Transcriptional enhancer factor TEF-4 (Homo sapiens), sequence (Q15562 whole entry): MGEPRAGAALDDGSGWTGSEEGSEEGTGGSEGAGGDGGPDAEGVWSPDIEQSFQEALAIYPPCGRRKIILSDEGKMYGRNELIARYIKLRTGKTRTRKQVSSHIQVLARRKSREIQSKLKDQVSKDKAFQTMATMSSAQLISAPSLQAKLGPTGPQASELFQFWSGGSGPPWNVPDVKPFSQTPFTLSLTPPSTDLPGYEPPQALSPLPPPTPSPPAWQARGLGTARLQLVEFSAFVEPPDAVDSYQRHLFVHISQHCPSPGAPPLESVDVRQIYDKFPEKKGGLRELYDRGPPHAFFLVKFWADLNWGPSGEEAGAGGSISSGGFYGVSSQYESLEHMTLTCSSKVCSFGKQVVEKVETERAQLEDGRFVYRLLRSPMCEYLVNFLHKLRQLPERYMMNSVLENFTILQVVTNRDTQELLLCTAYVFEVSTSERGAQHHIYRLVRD

`CC#CC(=O)N1CCc2ccc(-c3ccc(C(F)(F)F)cc3)cc2C1` showed an IC50 [1] of 52.4 nM.

For `C=CC(=O)N1CCc2ccc(-c3ccc(F)cc3)cc2C1`, the IC50 (NCI-H226 [2]) was 21.6 nM and the IC50 [1] was 0.84 nM.

With `C=CC(=O)Nc1ccc(C)c(Oc2ccc(Cl)cc2)c1` the remaining at 0.25 h [3] was 77.6%, the IC50 (NCI-H226 [2]) was 10.6 nM and the remaining at 0.25 h [4] was 26.4%. For the same compound, the IC50 [1] was 0.61 nM, the remaining at 0.5 h [5] was 63.5% and the remaining at 0.5 h [6] was 9.7%.

With `C=CC(=O)N1CCc2ccc(-c3ccc(OC(F)(F)F)cc3)cc2C1` the IC50 (NCI-H226 [2]) was 22.2 nM and the IC50 [1] was 0.7 nM.

In the case of `C=CC(=O)N1CCc2ccc(-c3ccc(C(F)(F)F)nc3)cc2C1`, the IC50 (NCI-H226 [2]) is reported as 391 nM and the IC50 [1] is reported as 5.48 nM.

For `C=CC(=O)N1CCc2ccc(-c3ccc(C(F)(F)F)cc3)cc2C1`, the “Ratio IC50” value [7] was >150, the inhibition [8] was “Active” and the remaining at 0.25 h [3] was 95.9%. For the same compound, the Cmax [9] was 974 ng/mL, the IC50 (NCI-H226 [2]) was 3.34 nM and the Activity [10] was “Non-toxic”. The AUC(0-t) at 24 h [11] was 3810 ng·h/mL, the Activity (NCI-H226 [12]) was “Active; Compound Showed Sustain Suppression Without Rebound” and the inhibition at 0.03 µM [13] was > 50%. For the same compound, the Activity (NCI-H226 [14]) was “inactive”, the remaining at 0.25 h [4] was 75.9% and the IC50 [1] was 0.34 nM. For the same compound, the Activity (HEK293) was “Non-toxic”, the remaining at 0.5 h [5] was 79.6% and the inhibition (NCI-H226 [15]) was “Dose-dependent-effect”. For the same compound, the inhibition [16] was “Active”, the inhibition (NCI-H226 [17]) was “Active; Higher Inhibition Observed” and the half-life [18] was 184 min. For the same compound, the Tmax [19] was 1.12 h, the MRT [20] was 6.08 h and the inhibition (NCI-H226 [21]) was “Active; Higher Inhibition Observed”. For the same compound, the inhibition at 0.03 µM [22] was > 50%, the remaining at 0.5 h [6] was 62.7% and the inhibition (NCI-H226 [23]) was “Dose-dependent-effect”. The inhibition [24] was “Active”, the inhibition [25] was “Active” and the Activity (NCI-H226 [26]) was “Active”.

Compound `C=CC(=O)N1CCc2ccc(-c3ccc(C(F)(F)F)cc3Cl)cc2C1` has an IC50 (NCI-H226 [2]) of 119 nM and an IC50 [1] of 1.04 nM.

Compound `C=CC(=O)N1CCc2ccc(-c3ccc(C(F)(F)F)c(F)c3)cc2C1` has an IC50 (NCI-H226 [2]) of 115 nM and an IC50 [1] of 0.36 nM.

`C=CC(=O)N1CCc2ccc(-c3ccc(C(F)(F)F)cn3)cc2C1` showed an IC50 (NCI-H226 [2]) of 26.6 nM and an IC50 [1] of 4.11 nM.
